This is an account of results in patent US12077503B2, “Substituted cyclic amides and their use as herbicides” (FMC CORPORATION, priority 2015, dated 2024).

What all share (assay type): in vivo
The subject of assay [1] is Galium (catchweed bedstraw, Galium aparine). Kind of assay: Test A postemergence. Conditions: Galium, post-emergence, 240 h, 125 g ai/ha, postemergence, visual injury rating after approximately 10 d; read-out: Galium plant response rating (0 to 100 scale, 0 no effect, 100 complete control). The essentials:
(§1)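 Visual injury, scored on a 0–100 scale relative to untreated controls, was recorded about 10 d after application. Treatments were a preemergence soil spray over planted seeds or a postemergence spray on plants at the one- to two-leaf stage, 2 to 10 cm tall, all in loam soil–sand blend in the greenhouse.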

Assay [2] concerns ragweed (common ragweed, Ambrosia elatior). Kind of assay: Test A postemergence. As to conditions: Ambrosia artemisiifolia, post-emergence, 240 h, 125 g ai/ha, postemergence, visual injury rating after approximately 10 d; read-out: Ragweed plant response rating (0 to 100 scale, 0 no effect, 100 complete control). The method in brief:
as §1

Assay [3] has as its system barnyardgrass (Echinochloa crus-galli). Kind of assay: Test A postemergence. Conditions: Echinochloa crus-galli, post-emergence, 240 h, 125 g ai/ha, postemergence, visual injury rating after approximately 10 d; read-out: Barnyardgrass plant response rating (0 to 100 scale, 0 no effect, 100 complete control). The method in brief: as §1
Another assay deals with corn (Zea mays). Kind of assay: Test A postemergence. As to conditions: Zea mays, post-emergence, 240 h, 125 g ai/ha, postemergence, visual injury rating after approximately 10 d; read-out: Corn plant response rating (0 to 100 scale, 0 no effect, 100 complete control). The method in brief:
as §1

In assay [4] the test system is sedge, umbrella (small-flower umbrella sedge, Cyperus difformis). Kind of assay: Test B flooded paddy test. As to conditions: Cyperus difformis, Flood, 250 g ai/ha; scale of 0 to 100 where 0 is no effect and 100 is complete control; read-out: Sedge, Umbrella plant response rating. The essentials: (§2)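 Compound goes directly into floodwater once pots are flooded 3 cm above soil, targeting plants at two leaves; the water depth is then held for the test duration. Plants sit 13–15 d in a greenhouse and are rated visually, 100 denoting complete control.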

For assay [5], the system named is barnyardgrass (Echinochloa crus-galli). Kind of assay: Test B flooded paddy test. Conditions: Echinochloa crus-galli, Flood, 250 g ai/ha; scale of 0 to 100 where 0 is no effect and 100 is complete control; read-out: Barnyardgrass plant response rating. The method in brief: as §2
Another assay concerns rice (Oryra sativa). Kind of assay: Test B flooded paddy test. Conditions: Oryza sativa, Flood, 250 g ai/ha; scale of 0 to 100 where 0 is no effect and 100 is complete control; read-out: Rice plant response rating. The method in brief:
as §2

For assay [6], the system named is ducksalad (Heteranthera limosa). Kind of assay: Test B flooded paddy test. As to conditions: Heteranthera limosa, Flood, 250 g ai/ha; scale of 0 to 100 where 0 is no effect and 100 is complete control; read-out: Ducksalad plant response rating. The essentials:
as §2

The subject of assay [7] is ragweed (common ragweed, Ambrosia elatior). Kind of assay: Test A preemergence. Conditions: Ambrosia artemisiifolia, pre-emergence, 240 h; for pest or weed control at 125 g/ha: 125 g ai/ha, preemergence, 0 to 100 scale where 0 is no effect and 100 is complete control, read-out: Ragweed plant response rating; for pest or weed control at 500 g/ha: 500 g ai/ha, Preemergence, visual injury vs untreated controls after approximately 10 d, read-out: Ragweed plant response rating (0 to 100 scale where 0 is no effect and 100 is complete control). The method in brief:
as §1

In assay [8] the test system is barnyardgrass (Echinochloa crus-galli). Kind of assay: Test A preemergence. As to conditions: Echinochloa crus-galli, pre-emergence, 240 h; for pest or weed control at 125 g/ha: 125 g ai/ha, preemergence, 0 to 100 scale where 0 is no effect and 100 is complete control, read-out: Barnyardgrass plant response rating; for pest or weed control at 500 g/ha: 500 g ai/ha, Preemergence, visual injury vs untreated controls after approximately 10 d, read-out: Barnyardgrass plant response rating (0 to 100 scale where 0 is no effect and 100 is complete control). The essentials: as §1

The subject of assay [9] is giant foxtail (Setaria faberii). Kind of assay: Test A preemergence. As to conditions: Setaria faberi, pre-emergence, 240 h; for pest or weed control at 125 g/ha: 125 g ai/ha, preemergence, 0 to 100 scale where 0 is no effect and 100 is complete control, read-out: Foxtail, Giant plant response rating; for pest or weed control at 500 g/ha: 500 g ai/ha, Preemergence, visual injury vs untreated controls after approximately 10 d, read-out: Foxtail, Giant plant response rating (0 to 100 scale where 0 is no effect and 100 is complete control). The essentials:
as §1

For a further assay, the system named is Kochia (Kochia scoparia). Kind of assay: Test A preemergence. Conditions: Bassia scoparia, pre-emergence, 240 h; for pest or weed control at 125 g/ha: 125 g ai/ha, preemergence, 0 to 100 scale where 0 is no effect and 100 is complete control, read-out: Kochia plant response rating; for pest or weed control at 500 g/ha: 500 g ai/ha, Preemergence, visual injury vs untreated controls after approximately 10 d, read-out: Kochia plant response rating (0 to 100 scale where 0 is no effect and 100 is complete control). The method in brief:
as §1

Assay [10] deals with pigweed (Amaranthus retroflexus). Kind of assay: Test A preemergence. As to conditions: Amaranthus retroflexus, pre-emergence, 240 h; for pest or weed control at 125 g/ha: 125 g ai/ha, preemergence, 0 to 100 scale where 0 is no effect and 100 is complete control, read-out: Pigweed plant response rating; for pest or weed control at 500 g/ha: 500 g ai/ha, Preemergence, visual injury vs untreated controls after approximately 10 d, read-out: Pigweed plant response rating (0 to 100 scale where 0 is no effect and 100 is complete control).

In assay [11] the test system is ryegrass, Italian (Italian ryegrass, Lolium multiflorum). Kind of assay: Test A preemergence. As to conditions: Lolium multiflorum, pre-emergence, 240 h; for pest or weed control at 125 g/ha: 125 g ai/ha, preemergence, 0 to 100 scale where 0 is no effect and 100 is complete control, read-out: Ryegrass, Italian plant response rating; for pest or weed control at 500 g/ha: 500 g ai/ha, Preemergence, visual injury vs untreated controls after approximately 10 d, read-out: Ryegrass, Italian plant response rating (0 to 100 scale where 0 is no effect and 100 is complete control). The essentials:
as §1

On to `O=C1NC[C@H](c2cc(F)c(C(F)(F)F)c(F)c2)[C@H]1C(=O)Nc1cccc(F)c1F` [Compound 838], for which the pest or weed control at 125 g/ha in [1] turned out to be 50%; in assay [2], 40%; in [3], 90%; in assay [7] it was 40%; in [8], 90%; in assay [9] it was 90%. The pest or weed control at 125 g/ha with Kochia (Kochia scoparia) is 70%; in assay [10], 80%; in [11] it was 20%. Also, the plant injury at 125 g/ha with corn (Zea mays) was 70%. In addition, the pest or weed control at 250 g/ha in assay [4] was 0%; in assay [5], 40%; in the assay with rice (Oryra sativa) it was 0%; in assay [6] it was 100%. Also, the pest or weed control at 500 g/ha in [7] came out at 60%; in [8], 90%; in [9], 90%; in the assay on Kochia (Kochia scoparia), 80%; in assay [10] it was 90%; in [11], 60%.

On to `COc1c(F)ccc([C@H]2CN(C)C(=O)[C@@H]2C(=O)Nc2ccccc2S(C)(=O)=O)c1Cl` [Compound 897], for which the pest or weed control at 125 g/ha in assay [1] came out at 40%; in assay [2], 20%; in [3] it was 90%; in assay [7], 20%; in [8] it was 80%; in [9] it was 90%. For the same compound, the pest or weed control at 125 g/ha in the assay with Kochia (Kochia scoparia) was 60%; in assay [10] it was 30%; in assay [11], 20%. Further, the plant injury at 125 g/ha in the assay with corn (Zea mays) was found to be 30%. The pest or weed control at 250 g/ha in [4] stood at 0%; in [5] it was 45%; with rice (Oryra sativa), 0%; in [6] it was 45%. Further, the pest or weed control at 500 g/ha in assay [7] was determined as 60%; in [8], 90%; in assay [9], 100%; in the assay with Kochia (Kochia scoparia), 90%; in [10] it was 60%; in assay [11] it was 50%.

For the compound `Cc1c(F)ccc([C@H]2CNC(=O)[C@@H]2C(=O)Nc2ccc(F)c(F)c2F)c1F` [Compound 830], the pest or weed control at 125 g/ha was 30% in [1]; 0% in assay [2]; 90% in assay [3]; 0% in [7]; 90% in assay [8]; 90% in assay [9]. Further, the pest or weed control at 125 g/ha with Kochia (Kochia scoparia) worked out at 70%; in [10], 20%; in [11], 0%. For the same compound, in the assay on corn (Zea mays), the plant injury at 125 g/ha is 0%. For the same compound, the pest or weed control at 250 g/ha in assay [4] was found to be 0%; in assay [5], 20%; in the assay with rice (Oryra sativa), 0%; in [6], 100%. Further, the pest or weed control at 500 g/ha in assay [7] is 20%; in [8], 90%; in [9] it was 90%; with Kochia (Kochia scoparia), 90%; in assay [10], 40%; in assay [11], 30%.
